Assay results published in US8642595B2, “Annellated 4-(indazolyl)-1,4-dihydropyridine derivatives and methods of use thereof” (Bayer Intellectual Property GmbH, priority 2008, dated 2014).

Key:
[1] = target: T1, N-terminally His6-tagged recombinant kinase domain of the human c-Met (amino acids 960-1390) (Homo sapiens, UniProt P08581); assay: c-Met receptor tyrosine kinase homogeneous time-resolved fluorescence assay (alternative format); type: biochemical; details: HTRF; ATP 10 μM, 30 min at 22° C.
T1 construct: kinase domain of the human c-Met (amino acids 960-1390); His6 (N); made in house; host or cells: insect cells (SF21)
T1 sequence (P08581 960-1390): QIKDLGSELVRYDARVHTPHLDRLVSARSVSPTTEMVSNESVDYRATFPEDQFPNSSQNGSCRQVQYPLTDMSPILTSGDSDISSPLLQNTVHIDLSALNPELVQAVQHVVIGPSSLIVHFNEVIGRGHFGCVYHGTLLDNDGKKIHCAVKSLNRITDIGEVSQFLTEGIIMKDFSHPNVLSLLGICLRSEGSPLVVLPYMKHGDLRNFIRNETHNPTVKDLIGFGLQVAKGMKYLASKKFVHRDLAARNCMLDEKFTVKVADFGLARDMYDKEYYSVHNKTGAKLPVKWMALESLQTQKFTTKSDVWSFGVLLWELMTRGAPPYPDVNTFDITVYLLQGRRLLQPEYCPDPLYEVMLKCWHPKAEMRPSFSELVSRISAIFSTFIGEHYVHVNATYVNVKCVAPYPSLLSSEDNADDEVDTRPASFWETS
From the text: c-Met Receptor Tyrosine Kinase Homogeneous Time-Resolved Fluorescence Assay (Alternative Format):
The N-terminally His6-tagged recombinant kinase domain of the human c-Met (amino acids 960-1390), expressed in insect cells (SF21) and purified by Ni-NTA affinity chromatography and consecutive size exclusion chromatography (Superdex 200), is used. Alternatively, commercially available c-Met (Millipore) can be used. As substrate for the kinase reaction, the biotinylated poly-Glu,Tyr (4:1) copolymer (#61GT0BLC, Cis Biointernational, Marcoule, France) is used.
For the assay, 50 nL of a 100-fold concentrated solution of the test compound in DMSO is pipetted into a black low-volume 384-well microtiter plate (Greiner Bio-One, Frickenhausen, Germany). 2 μL of a solution of c-Met in assay buffer [25 mM Hepes/NaOH, pH 7.5; 5 mM MgCl2; 5 mM MnCl2; 2 mM dithiothreitol; 0.1% (v/v) Tween 20 (Sigma); 0.1% (w/v) bovine serum albumin] are added, and the mixture is incubated for 15 min at 22° C. to allow pre-binding of the test compound to the enzyme before the start of the kinase reaction. Then, the kinase reaction is started by the addition of 3 μL of a solution of adenosine triphosphate (ATP, 16.7 μM; final concentration in the 5 μL assay volume is 10 μM) and substrate (2.27 μg/mL, final concentration in the 5 μL assay volume is 1.36 μg/mL˜30 nM) in assay buffer, and the resulting mixture is incubated for a reaction time of 30 min at 22° C. […]
The resulting mixture is incubated for 1 h at 22° C. to allow the binding of the biotinylated phosphorylated peptide to the streptavidine-XLent and the PT66-Eu-chelate. Subsequently, the amount of phosphorylated substrate is evaluated by measurement of the resonance energy transfer from the PT66-Eu-chelate to the streptavidine-XLent. Therefore, the fluorescence emissions at 620 nm and 665 nm after excitation at 350 nm are measured in an HTRF reader, e.g. Rubystar (BMG Lab-technologies, Offenburg, Germany) or Viewlux (Perkin-Elmer). […]

[2] = target: T2, Recombinant human c-Met protein (Homo sapiens, UniProt P08581); assay: c-Met receptor tyrosine kinase activity assay (NADH read-out); type: biochemical; details: c-Met 30 nM, ATP 30 μM, 100 min at 32° C.
T2 construct: purchased Invitrogen
T2 sequence (P08581 25-1390): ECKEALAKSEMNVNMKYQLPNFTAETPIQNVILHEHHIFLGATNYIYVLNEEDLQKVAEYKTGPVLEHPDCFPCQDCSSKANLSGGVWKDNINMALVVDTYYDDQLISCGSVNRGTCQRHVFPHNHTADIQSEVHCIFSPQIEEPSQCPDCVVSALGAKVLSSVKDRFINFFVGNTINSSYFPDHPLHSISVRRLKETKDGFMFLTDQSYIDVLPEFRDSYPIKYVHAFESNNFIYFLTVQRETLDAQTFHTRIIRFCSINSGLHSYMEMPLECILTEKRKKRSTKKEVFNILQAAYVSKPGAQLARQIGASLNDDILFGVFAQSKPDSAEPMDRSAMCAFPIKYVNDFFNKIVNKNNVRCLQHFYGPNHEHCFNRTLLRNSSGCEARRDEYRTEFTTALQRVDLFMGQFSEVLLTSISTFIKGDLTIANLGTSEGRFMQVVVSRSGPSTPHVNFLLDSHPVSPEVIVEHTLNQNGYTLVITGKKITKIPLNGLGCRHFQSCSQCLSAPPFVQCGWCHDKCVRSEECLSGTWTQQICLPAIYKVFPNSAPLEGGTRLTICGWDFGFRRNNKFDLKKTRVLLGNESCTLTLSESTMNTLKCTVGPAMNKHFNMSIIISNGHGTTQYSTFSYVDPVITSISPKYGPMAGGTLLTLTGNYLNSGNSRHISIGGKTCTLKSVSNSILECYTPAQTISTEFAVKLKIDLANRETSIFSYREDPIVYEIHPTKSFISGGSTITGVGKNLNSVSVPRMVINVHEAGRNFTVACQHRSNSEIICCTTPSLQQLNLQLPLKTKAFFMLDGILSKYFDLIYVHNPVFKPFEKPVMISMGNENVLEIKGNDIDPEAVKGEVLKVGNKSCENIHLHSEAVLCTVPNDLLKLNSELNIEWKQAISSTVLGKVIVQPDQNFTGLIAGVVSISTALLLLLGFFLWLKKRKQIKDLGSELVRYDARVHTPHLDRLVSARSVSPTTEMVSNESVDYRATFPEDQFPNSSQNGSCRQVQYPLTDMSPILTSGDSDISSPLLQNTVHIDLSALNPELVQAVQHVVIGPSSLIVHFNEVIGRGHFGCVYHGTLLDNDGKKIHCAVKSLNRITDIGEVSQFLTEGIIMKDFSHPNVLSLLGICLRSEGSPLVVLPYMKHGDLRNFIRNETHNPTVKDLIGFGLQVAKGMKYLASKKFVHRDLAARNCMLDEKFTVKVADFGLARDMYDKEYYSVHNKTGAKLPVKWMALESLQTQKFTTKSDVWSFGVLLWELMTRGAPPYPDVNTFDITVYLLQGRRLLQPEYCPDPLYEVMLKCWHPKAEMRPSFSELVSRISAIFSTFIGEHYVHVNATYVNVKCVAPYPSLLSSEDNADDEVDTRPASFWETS
Method: c-Met Receptor Tyrosine Kinase Activity Assay (NADH Read-Out):
Recombinant human c-Met protein (Invitrogen, Carlsbad, Calif., USA) is used. As substrate for the kinase reaction the peptide KKKSPGEYVNIEFG (JPT, Germany) is used. For the assay, 1 μL of a 51-fold concentrated solution of the test compound in DMSO is pipetted into a white 384-well microtiter plate (Greiner Bio-One, Frickenhausen, Germany). 25 μL of a solution of c-Met (final concentration 30 nM) and pyruvate kinase/lactate dehydrogenase (Roche Diagnostics, Mannheim, Germany; final concentration 8 mg/L) in assay buffer [3-(N-morpholino)propane-sulfonic acid (MOPS), 50 mM, pH 7; MgCl2, 10 mM; bovine serum albumin (BSA), 0.01%; Triton X 100, 0.01%; DTT, 2 mM] are added, and the mixture is incubated for 5 min at room temperature. Then, the kinase reaction is started by the addition of 25 μL of a solution of adenosine triphosphate (ATP, final concentration 30 μM), substrate (final concentration 100 μM), nicotinamide adenine dinucleotide (NADH, final concentration 50 μM) and dithiothreitol (DTT, final concentration 2 mM) in assay buffer, and the resulting mixture is incubated for a reaction time of 100 min at 32° C.
Subsequently, the amount of phosphorylated substrate is evaluated by measurement of the decrease of NADH fluorescence. Therefore, the fluorescence emissions at 465 nm after excitation at 340 nm is measured in a fluorescence reader, e.g. Tecan Ultra (Tecan, Männedorf, Switzerland). The data are normalised (enzyme reaction without inhibitor=0% inhibition; all other assay components but no enzyme=100% inhibition).

Row | IC50 [1] [nM] | IC50 [2] [nM] | Structure (SMILES)
1 | 23 |  | CCc1n[nH]c2ccc(C3C(C#N)=C(C)N4CCOCC4=C3C#N)cc12 (racemic) [Example 4, 8-(3-Ethyl-1H-indazol-5-yl)-6-methyl-1,3,4,8-tetrahydropyrido[2,1-c][1,4]oxazine-7,9-dicarbonitrile]
2 | 1 | 8 | CC1=C(C#N)C(c2ccc3[nH]nc(C)c3c2)C(C#N)=C2COCCN12 (single isomer, unassigned) [Example 2, 6-Methyl-8-(3-methyl-1H-indazol-5-yl)-1,3,4,8-tetrahydropyrido[2,1-c][1,4]oxazine-7,9-dicarbonitrile]
3 |  | 12 | CCc1n[nH]c2ccc(C3C(C#N)=C(C)N4CCOCC4=C3C#N)cc12 (single isomer, unassigned) [Example 5, 8-(3-Ethyl-1H-indazol-5-yl)-6-methyl-1,3,4,8-tetrahydropyrido[2,1-c][1,4]oxazine-7,9-dicarbonitrile]
4 |  | 88 | CCc1n[nH]c2ccc(C3C(C#N)=C(C)N4CCOCC4=C3C#N)cc12 (single isomer, unassigned) [Example 6, 8-(3-Ethyl-1H-indazol-5-yl)-6-methyl-1,3,4,8-tetrahydropyrido[2,1-c][1,4]oxazine-7,9-dicarbonitrile]
5 | 2 | 23 | CC1=C(C#N)C(c2ccc3[nH]nc(-c4ccc(F)nc4)c3c2)C(C#N)=C2COCCN12 (stereo not shown) [Example 7, 8-[3-(6-Fluoropyridin-3-yl)-1H-indazol-5-yl]-6-methyl-1,3,4,8-tetrahydropyrido[2,1-c][1,4]-oxazine-7,9-dicarbonitrile]
